Measurements as given in BigSolDB 2.1.

Conditions: in isobutyl acetate

O=C(O)c1cccc(C(=O)O)c1
Conditions	solubility (mole fraction)
308.15 K	0.000352
313.15 K	0.000388
318.15 K	0.000438
323.15 K	0.000507
328.15 K	0.000691
333.15 K	0.000917
338.15 K	0.0013
343.15 K	0.00166
348.15 K	0.00201
353.15 K	0.00221

O=C(O)c1ccccc1C(=O)O
Conditions	solubility (mole fraction)
300.68 K	0.0011
302.37 K	0.0012
304.42 K	0.0012
309.58 K	0.0016
312.72 K	0.0022
317.36 K	0.0026
326.85 K	0.0032
331.86 K	0.0037
335.27 K	0.005
340.04 K	0.0062
342.69 K	0.0077
348.7 K	0.0092

O=C(O)c1ccc(C(=O)O)cc1
Conditions	solubility (mole fraction)
305.15 K	2.38e-05
308.15 K	2.57e-05
313.15 K	3.22e-05
318.15 K	3.41e-05
323.15 K	3.86e-05
328.15 K	5.78e-05
333.15 K	7.07e-05
338.15 K	8.25e-05
343.15 K	8.91e-05
348.15 K	0.000104

Cc1ccc(C(=O)O)cc1
Conditions	solubility (mole fraction)
300.19 K	0.0328
303.04 K	0.0338
306.43 K	0.0356
310.28 K	0.0421
312.7 K	0.0434
315.36 K	0.0475
319.97 K	0.0525
323.16 K	0.0573
324.84 K	0.0612
325.76 K	0.0653
329.67 K	0.0692
332.48 K	0.0735
333.91 K	0.0774
335.96 K	0.0813
337.49 K	0.0848
339.46 K	0.0885
341.07 K	0.0918
342.68 K	0.0954
344.69 K	0.0994
345.82 K	0.103
347.26 K	0.107
348.41 K	0.11

O=C(O)c1ccccc1
Conditions	solubility (mole fraction)
299.73 K	0.14
302.46 K	0.149
307.34 K	0.178
313.61 K	0.208
322.93 K	0.254
328.98 K	0.293
332.24 K	0.311
334.34 K	0.325
335.58 K	0.337
336.03 K	0.338
337.33 K	0.349
337.67 K	0.351
338.76 K	0.358
339.37 K	0.362
339.86 K	0.369
341.48 K	0.379
342.69 K	0.39
343.67 K	0.399
